Source: US11564911B2, “Small molecule dual-inhibitors of TRPV4 and TRPA1 for sanitizing and anesthetizing” (Duke University, priority 2016, dated 2023)
Where “and” joins values, the source holds several entries; their conditions need not be identical. Equal values may be shown once. Entries after “also recorded” stand apart in the source; their conditions may differ. Square brackets hold non-standard residues; d marks the D form. Peptide text beside a SMILES is read from it.

Columns and labels:
[1] = test system: primary mouse keratinocytes (1° MK); assay: UVB-evoked Ca++ signaling in primary mouse keratinocytes (fluo-4); format: cell-based; conditions: for UVB-evoked Ca++ signal: GSK205 20 μM; for ET1-augmented UVB-induced Ca++ transients: co-exposure to ET1
Procedure: Ca++ imaging of 1° MK was conducted following routine procedures. For UVB stimulation, a customized device was built. The system comprised a printed circuit board for electrical interconnects and mechanical support and an ultraviolet light-emitting diode (UV LED).
The operating wavelength was 295 nm (FIG. 2A), with a full-width half-max of 12 nm. The optical power was 500 mW. The focal point was aimed at the plane of the upper surface of the quartz coverslip, which was used to minimize UV absorption along the optical path towards the cells (FIG. 2A-C). The optical intensity at the focal point was estimated to be 150 mW/mm^2.
(§1) Ca++ imaging of mouse 1° MK in response to chemical activation of TRPV4 was conducted after loading with 2 μM fura2-AM, following a ratiometric Ca2+ imaging protocol with 340/380 nm […] for dual excitation. Ratios of emissions were acquired at 0.5 Hz. ΔR/R0 was determined as the fraction of the increase of a given ratio over baseline ratio, divided by baseline ratio. For stimulation of cells with UVB, where fura-2 was not suitable because of the proximity of stimulation with 340/380 nm and 295 nm, 2 μM fluo4-AM was used instead. Ca++ imaging was carried out at 488 nm excitation, acquisition of emissions at 0.5 Hz, expressed as ΔF/F0. In the custom-built UV optical system, UV LEDs were capped with a ball lens, a transparent optical window in the shape of a hemispherical lens (FIG. 2B). The LED output optical beam focused at 15-20 mm from the lens, with a spot diameter of approximately 1.5-2.0 mm (FIG. 2C). […] The thermal equilibration stage was set for physiological temperature.

[2] = test system: primary mouse keratinocytes (1° MK); assay: ET1 secretion by non-stimulated primary mouse keratinocytes (ELISA); format: cell-based
Procedure: FIGS. 8A-8D: Central role for KC TRPV4 in UVB-evoked Ca^++ signaling and nocifensive behavior—ET1-related supplementary findings. (FIG. 8A) Augmentation of GSK101-evoked Ca^++ signaling by ET1. Shown are averaged Ca^++ measurements (fura-2) in response to 5 nM GSK101. Note the increase in signal in response to co-exposure to ET1. (FIG. 8B) ET1 secretion by non-stimulated 1° MK depends on TRPV4 and PLC. Shown are relative ET1 concentrations (determined by ELISA, pg/mL; vehicle-treated and WT control normalized to 100) in supernatant of non-stimulated 1° MK. Note the clear dependence on TRPV4, as indicated by a 50% reduction in Trpv4^−/− 1° MK. […] There is also down-regulation of ET1 secretion by a specific inhibitor of PLC (U73122), and by an ET-convertase inhibitor, CGS35066, which served as a control compound. In addition, PLC-inhibitor robustly affects ET1 secretion in WT and Trpv4^−/− 1° MK. (FIG. 8C) ET1 expression by UVB-exposed 1° MK depends on TRPV4 and PLC—immunocytochemistry. Shown is specific ET1 immunolabeling in 1° MK, exposed to UVB using the UVB-LEDs, as for Ca^++ imaging. Use of the UVB-LED device precluded application of a ET1 ELISA, only irradiated cells could be examined. […] (FIG. 8D) ET1 expression by UVB-exposed 1° MK depends on TRPV4 and PLC—quantification of immunocytochemistry.

[3] = test system: primary mouse keratinocytes (1° MK); assay: ET1 immunocytochemistry in UVB-exposed primary mouse keratinocytes; format: cell-based; conditions: 295 nm UVB-LED
Procedure: 1° MK were exposed to UVB using the UV optical system (295 nm LED). 24 hours later the cells were fixed and fluorescently immunolabeled for ET1. Digital images were captured and subjected to morphometry.
Mouse keratinocytes were cultured on collagen coated quartz coverslips and then stimulated from the bottom using the previously mentioned UV optical system using the 295 nm LED. 24 hours later the cells were fixed in 4% formaldehyde in PBS for 20 minutes, permeabilized with 0.1% Triton X-100 in PBS for 10 minutes, washed, then blocked in 10% normal goat serum in PBS for 45 minutes. Coverslips were incubated overnight with primary antibody mouse anti-ET1 (1:200; Abcam), washed three times in PBS and incubated with secondary antibody for 2 hours at 25° C. Coverslips were washed three times in PBS, once with double-distilled H2O. Digital images were captured using a 40× immersion lens on the BX61 Olympus upright microscope. Morphometric analysis was conducted using ImageJ freeware with tailored regions-of-interest.

[4] = test system: Trpv4−/− mice, whisker-pad injection of formalin; assay: Formalin-evoked trigeminal irritant pain, systemic (i.p.) compound, Trpv4−/− mice; format: in vivo, mouse; conditions: 25 mg/kg i.p.
Procedure: FIGS. 31A-31D: 16-8 and 16-19 effectively attenuate formalin-evoked trigeminal irritant pain. (FIG. 31A) Time-course of nocifensive behavior in WT mice following whisker-pad injection of 4% formalin. The mice were pre-injected (i.p., 10 mg/kg; 15 min before formalin) with GSK205, 16-8 or 16-19. Note effective reduction of nocifensive behavior in the late “neural” phase by compounds 16-8, 16-19, not by GSK205. (FIG. 31B) Cumulative response binned into 3 phases: acute phase (0-5 min), interphase (5-15 min), and late “neural” phase (15-45 min). […] (FIG. 31C) As in (FIG. 31A), but also including Trpv4^−/− mice. Compounds were applied i.p. 15 min before formalin challenge, at 10 mg/kg except established TRPA1 blocker, A967079 (25 mg/kg). Previously-established attenuated nocifensive behavior in early and late phase in Trpv4^−/− mice was recapped, which was reduced further by TRPA1 blocker, A967079. (FIG. 31D) As in (FIG. 31B), plus inclusion of Trpv4^−/− mice. Robust effects of TRPA1-blocker, A967079, were mimicked equi-potently by 16-8 and 16-19 for early phase, and by 16-8 for late phase, partially by 16-19 for late phase. (FIG. 31A, FIG. 31C) show averaged behavioral metrics per time-point, bars in (FIG. 31B, FIG. 31D) represent mean±SEM; for (D) *p<0.05; #P<0.005, one-way ANOVA; for all panels n=5-8 mice/group.
Compounds were tested for their effect in reducing pain using an in vivo pain model in mice. For mouse formalin-evoked irritant behavior measurements, mice were well-fed, well-rested, and tested at the same time of day, at the same time-point of their circadian rhythm. They were allowed to acclimate to a plexiglas chamber for at least 30 min before testing, and received 10 μL subcutaneous injection of 4% of formalin (diluted from an aqueous solution of commercial 37% formaldehyde with normal saline (NS)) through a 30-gauge needle into the right whiskerpad, as further detailed in Luccarini et al. (J. Pain, 2006, 7, 908-914). Normal saline was used as control injection. After injection, mice were immediately placed back into the chamber and the rubbing behavior was recorded by a private consumer-type video-camera for a 45 min observation period. The recording time was divided into 9 blocks of 5 min, and a nociceptive score was determined per block by measuring the time that the animals spent rubbing the injected area predominantly with the ipsilateral fore-paw and rarely with hind-paw. This rubbing behavior with fore-paw is evoked by pain, which is distinct from itch behavior. Behavioral analysis was conducted by observers blinded to treatment.
We observed significant residual irritant-pain behavior in all phases of the formalin model in Trpv4^−/− mice, consistent with our previous report^13 (FIG. 31C,D). […] A reference TRPA1-inhibitory compound, A967079, was used at 25 mg/kg body weight as a positive control to inhibit TRPA1, based on a previous report^38. Reduction of pain behavior in Trpv4^−/− mice was striking, more than 50% in the late neural phase. […] We conclude that compound 16-8 also functions as a potent TRPA1-inhibitor in an in-vivo irritant pain model specifically designed to assess the contribution of TRPA1 to trigeminal irritant pain, and at least as potent as an established reference TRPA1-antagonistic compound.

TRPV4 [5] = target: T1, TRPV4 (Mus musculus, UniProt Q9EPK8); assay: Ca++ transients in primary mouse keratinocytes on chemical activation of TRPV4 (GSK101, 4α-PDD); format: cell-based; conditions: 1° MK
T1 construct: endogenous in cells; host or cells: primary mouse epidermal keratinocytes (1° MK)
T1 sequence (Q9EPK8 whole entry): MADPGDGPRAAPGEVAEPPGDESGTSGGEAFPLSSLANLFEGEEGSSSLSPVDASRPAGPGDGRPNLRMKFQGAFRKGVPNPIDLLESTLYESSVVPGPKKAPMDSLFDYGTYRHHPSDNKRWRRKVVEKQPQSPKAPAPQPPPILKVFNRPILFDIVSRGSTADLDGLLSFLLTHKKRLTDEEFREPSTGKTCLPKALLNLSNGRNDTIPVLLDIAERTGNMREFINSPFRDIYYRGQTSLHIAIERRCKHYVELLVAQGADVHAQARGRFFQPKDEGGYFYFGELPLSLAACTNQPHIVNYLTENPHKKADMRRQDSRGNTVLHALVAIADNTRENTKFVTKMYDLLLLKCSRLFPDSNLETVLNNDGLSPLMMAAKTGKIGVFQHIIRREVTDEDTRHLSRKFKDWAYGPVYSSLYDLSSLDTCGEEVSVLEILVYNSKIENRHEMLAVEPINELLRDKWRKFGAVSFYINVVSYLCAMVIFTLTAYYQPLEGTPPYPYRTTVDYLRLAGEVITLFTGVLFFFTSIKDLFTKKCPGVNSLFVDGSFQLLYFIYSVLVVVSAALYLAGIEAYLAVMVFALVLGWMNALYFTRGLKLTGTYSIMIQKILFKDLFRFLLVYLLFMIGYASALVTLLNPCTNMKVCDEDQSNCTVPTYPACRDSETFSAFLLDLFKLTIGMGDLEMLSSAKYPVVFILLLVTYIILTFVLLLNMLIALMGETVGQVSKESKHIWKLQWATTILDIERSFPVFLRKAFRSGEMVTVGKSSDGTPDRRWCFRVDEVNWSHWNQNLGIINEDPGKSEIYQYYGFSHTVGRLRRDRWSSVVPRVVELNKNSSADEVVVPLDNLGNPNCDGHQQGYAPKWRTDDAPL
Procedure: as §1, with “temperature. We confirmed the non-thermal nature of UVB stimulation using the customized 295 nm LED device in a dedicated experiment (FIG. 2D), thus confirming the specific modality of stimulation as UVB.” for “temperature.”

[6] = test system: WT and oil-treated iKO mice; assay: Nocifensive behavior after ET1 footpad injection (von Frey); format: in vivo, mouse; conditions: 10 μL 100 nM ET-1 intraplantar
Procedure: ET1 injections: After determining base-line withdrawal thresholds, each animal received an intraplantar injection of 10 μL 100 nM ET-1 plus contralateral vehicle. Thresholds were again evaluated 1 hour after injection.
Hindpaw mechanical withdrawal thresholds were determined by the automated von Frey hair method, using a 0.5 mm diameter stainless steel filament, part of an automated plantar touch stimulator (Ugo Basile, Modena, Italy). Relevant detail included pre-test acclimatization in a quiet room for 30 min, conducting the test at the same time of day and blinded observers. The stimulus was delivered to the hindpaw, automatically discontinued upon withdrawal, and its intensity recorded automatically. 6-8 trials per animal were conducted, with equal exposure of both hindpaws, leading to an average withdrawal threshold. Results are reported as […], which was calculated by subtracting post-treatment from pre-treatment measurements, expressed as % or relative to 1.0.

TRPV4 (rat) = target: T2, TRPV4 (rat) (Rattus norvegicus, UniProt Q9ERZ8); assay: Ca++ imaging in N2a cells with directed expression of TRPV4, activation with GSK101; format: cell-based
T2 construct: expressed in transfected cells; host or cells: N2a (mouse neuroblastoma) cells
T2 sequence (Q9ERZ8 whole entry): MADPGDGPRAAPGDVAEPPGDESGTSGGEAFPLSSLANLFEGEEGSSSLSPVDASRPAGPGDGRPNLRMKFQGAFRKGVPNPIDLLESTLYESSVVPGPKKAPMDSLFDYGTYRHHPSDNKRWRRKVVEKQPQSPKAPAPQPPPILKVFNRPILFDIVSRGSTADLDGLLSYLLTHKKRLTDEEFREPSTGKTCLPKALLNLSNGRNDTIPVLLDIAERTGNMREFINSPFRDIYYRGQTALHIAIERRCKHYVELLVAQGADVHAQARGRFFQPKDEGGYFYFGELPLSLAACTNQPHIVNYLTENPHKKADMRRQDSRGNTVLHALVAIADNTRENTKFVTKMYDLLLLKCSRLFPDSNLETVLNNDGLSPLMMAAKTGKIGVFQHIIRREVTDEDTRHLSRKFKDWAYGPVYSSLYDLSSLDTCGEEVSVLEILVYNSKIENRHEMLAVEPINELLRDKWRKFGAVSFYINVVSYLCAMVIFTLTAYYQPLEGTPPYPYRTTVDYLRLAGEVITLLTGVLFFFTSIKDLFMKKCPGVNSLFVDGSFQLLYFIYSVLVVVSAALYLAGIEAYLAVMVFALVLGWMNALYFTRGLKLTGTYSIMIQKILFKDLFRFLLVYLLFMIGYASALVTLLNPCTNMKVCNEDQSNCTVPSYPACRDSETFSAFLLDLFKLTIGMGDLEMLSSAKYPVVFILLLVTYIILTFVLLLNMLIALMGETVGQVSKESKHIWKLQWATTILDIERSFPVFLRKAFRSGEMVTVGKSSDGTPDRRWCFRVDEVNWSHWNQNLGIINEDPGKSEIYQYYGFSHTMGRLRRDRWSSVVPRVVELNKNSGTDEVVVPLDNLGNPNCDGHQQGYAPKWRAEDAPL
Text: FIGS. 26A-26B: Assessment of compounds in N2a cells with directed expression of TRPV4. […] The number on each bar corresponds to average peak ΔCa++ concentrations in ≈100 cells. […] Plot generated from averaged peak ΔCa++ concentration of 75 cells per data-point.

TRPV4 [7] = target: TRPV4 (Homo sapiens, UniProt Q9HBA0); assay: TRPV4-mediated calcium influx in N2a cells with targeted expression of human TRPV4; format: cell-based; set-up: expressed in transfected cells; host or cells: N2a cells; conditions: 2.5 μM inhibitor, pre-incubation 10 min, 10 nM GSK101
Sequence of TRPV4 (Homo sapiens, UniProt Q9HBA0) (Q9HBA0 whole entry): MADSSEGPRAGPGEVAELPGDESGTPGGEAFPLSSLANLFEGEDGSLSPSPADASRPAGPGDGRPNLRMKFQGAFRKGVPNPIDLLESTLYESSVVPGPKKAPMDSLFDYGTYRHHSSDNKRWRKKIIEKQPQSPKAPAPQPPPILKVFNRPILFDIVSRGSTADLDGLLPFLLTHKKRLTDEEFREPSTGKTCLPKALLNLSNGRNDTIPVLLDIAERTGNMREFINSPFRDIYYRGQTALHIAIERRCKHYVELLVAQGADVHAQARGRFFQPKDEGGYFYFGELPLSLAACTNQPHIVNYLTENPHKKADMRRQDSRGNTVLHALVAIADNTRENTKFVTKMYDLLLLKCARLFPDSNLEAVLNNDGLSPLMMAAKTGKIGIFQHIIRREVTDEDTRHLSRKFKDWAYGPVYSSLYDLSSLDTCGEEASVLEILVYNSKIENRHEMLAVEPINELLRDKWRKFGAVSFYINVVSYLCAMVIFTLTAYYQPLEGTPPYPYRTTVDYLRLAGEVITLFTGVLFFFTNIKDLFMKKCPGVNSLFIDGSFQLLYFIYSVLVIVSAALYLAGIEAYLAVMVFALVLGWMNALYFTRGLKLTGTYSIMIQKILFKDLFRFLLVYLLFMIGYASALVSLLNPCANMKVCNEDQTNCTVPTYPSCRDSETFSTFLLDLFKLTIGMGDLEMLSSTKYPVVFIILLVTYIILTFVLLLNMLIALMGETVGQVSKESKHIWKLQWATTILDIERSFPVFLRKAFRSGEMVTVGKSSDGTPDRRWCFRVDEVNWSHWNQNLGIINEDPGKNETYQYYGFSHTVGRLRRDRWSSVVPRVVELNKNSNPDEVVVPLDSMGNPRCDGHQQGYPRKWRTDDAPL

## COc1ccc2c(c1)CC[C@@H]1[C@@H]2CC[C@]2(C)[C@@H](NCCCCCCN3C(=O)C=CC3=O)CC[C@@H]12 [Compound U73122]
[1]
  UVB-evoked Ca++ signal: virtually eliminated; also recorded: strongly reduced
[2]
  ET1 secretion, supernatant of non-stimulated 1° MK: down-regulation
[3]
  ET1 immunoreactivity in UVB-exposed 1° MK: significant down-regulation

## CCC(=N\O)/C(C)=C/c1ccc(F)cc1 [Compound A967079, reference compound]
[4]
  reduction of pain behavior in the late neural phase: more than 50%

## C=C(C)CCO[P@@](=O)(O)OP(=O)(O)O [IPP, isopentenyl pyrophosphate]
[1]
  UVB-evoked Ca++ signal: not inhibited

## O=C(O)C(Cc1ccc2c(c1)oc1ccccc12)NCP(=O)(O)O (centres unmarked) [CGS35066]
[1]
  UVB-evoked Ca++ signal: significantly diminished
[2]
  ET1 secretion, supernatant of non-stimulated 1° MK: down-regulation
[3]
  ET1 immunoreactivity in UVB-exposed 1° MK: significant down-regulation

## CCCC[C@@H](NC(=O)[C@@H](Cc1cn(C(=O)OC)c2ccccc12)NC(=O)[C@H](CC(C)(C)C)NC(=O)N1[C@H](C)CCC[C@@H]1C)C(=O)O [BQ788]
[1]
  ET1-augmented UVB-induced Ca++ transients: attenuated

## ET1: endothelin-1 peptide, cognate ligand of endothelin receptors
[1]
  UVB-evoked Ca++ signal: significant increase
TRPV4 [5]; 5 nM GSK101, GSK205 20 μM
  GSK101-evoked Ca++ transient: augmented
TRPV4 [5]; fura-2
  4α-PDD-evoked Ca++ transient: significant increase
[6]
  mechanical withdrawal after footpad injection: significant levels of mechanical allodynia

## CC(C)NCCN(C(C)C)S(=O)(=O)c1ccc(Cl)cc1Cl [RN1734]
[2]
  ET1 secretion, supernatant of non-stimulated 1° MK: significant down-regulation
[3]
  ET1 immunoreactivity in UVB-exposed 1° MK: significant down-regulation

## CC(C)C[C@@H]1NC(=O)[C@@H](C(C)C)NC(=O)[C@@H]2CCCN2C(=O)[C@@H](CC(=O)O)NC(=O)[C@@H](Cc2c[nH]c3ccccc23)NC1=O [BQ123] (cyclo(L[dW][dD]P[dV]))
[1]
  ET1-augmented UVB-induced Ca++ transients: attenuated

## CCN(CCc1ccc(Nc2nc(-c3cccnc3)cs2)cc1)Cc1ccccc1 [Compound 16-18]
TRPV4 (rat); N2a cells, rat TRPV4, 5 nM GSK101, averaged peak ΔCa++, read-out: IC50, inhibition of TRPV4-mediated Ca++ influx
  IC50: 0.81 µM and 0.59 µM
TRPV4 (rat); from IC50 values, rat TRPV4 in N2a cells
  increased potency versus parental compound GSK205: ~5 fold
TRPV4 (rat); inhibitor 5 μM, 5 nM GSK101
  inhibition of TRPV4-mediated Ca++ influx, first round screening: two most potent
TRPV4 [7]
  inhibition of TRPV4-mediated calcium influx (peak calcium concentration): most potent
